Assay results as given in patent US8492106B2, “Identification methods for ergothioneine transporter modulators and therapeutic uses thereof” (Universitat Zu Koln, priority 2004, dated 2013).
Read-outs that look alike come from different tables or passages of the source. One block for each molecule: values may come before it.

Legend:
[1] = molecular target: T1, ETTh (Homo sapiens, UniProt Q9H015); assay: Substrate uptake into 293-FIT-ETTh cells expressing ETTh (LC-MS/MS and radiotracer assays); type: cell-based; conditions: for Km: read-out: Km (affinity of ETTh)
T1 construct: expressed in transfected cells
T1 sequence (Q9H015 1-551): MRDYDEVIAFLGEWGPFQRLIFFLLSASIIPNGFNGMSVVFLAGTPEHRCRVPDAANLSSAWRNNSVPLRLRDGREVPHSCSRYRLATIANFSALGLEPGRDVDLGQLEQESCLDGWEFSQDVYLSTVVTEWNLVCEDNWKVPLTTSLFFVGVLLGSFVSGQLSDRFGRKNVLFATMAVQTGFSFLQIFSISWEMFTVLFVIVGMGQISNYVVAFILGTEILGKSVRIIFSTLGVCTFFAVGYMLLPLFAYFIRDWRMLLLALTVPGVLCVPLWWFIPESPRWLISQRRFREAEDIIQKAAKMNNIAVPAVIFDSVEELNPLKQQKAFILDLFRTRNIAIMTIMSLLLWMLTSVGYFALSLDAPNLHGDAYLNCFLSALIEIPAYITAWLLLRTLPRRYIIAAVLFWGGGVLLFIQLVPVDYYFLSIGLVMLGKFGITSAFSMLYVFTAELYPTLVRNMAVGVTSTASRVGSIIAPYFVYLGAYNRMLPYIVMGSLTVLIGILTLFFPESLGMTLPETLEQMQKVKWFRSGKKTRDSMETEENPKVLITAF
Description: Substrate concentration was 10 μmol/l for all LC-MS/MS assays (gamma-butyryl betaine, N-methyl proline (alias hygric acid), hydroxyproline betaine (alias betonicine), proline betaine (alias stachydrine), and ergothioneine) and 0.1 μmol/l for all radiotracer assays.
(§1) FIG. 3: Determination of Km and Vmax of ergiothioneine transport via ETTh. 293-FIT-ETTh (filled circles) or 293-FIT-NT (open circles) cell monolayers were incubated for 1 min at 37° C. with various ET concentrations in KRH buffer. After thorough washing, cells were lysed with 4 mmol/l HClO4. Lysates were analysed for ET content by LC-MS/MS. Each circle represents a single dish. Uptake into control cells was modeled with a straight line through the origin.
The cDNA of ETTh (EMBL/GenBank accession number Y09881) was inserted into the eukaryotic expression vector pcDNA5/FRT/TO (Invitrogen) to yield pcDNA5/FRT/TO/ETTh. This plasmid was cotransfected together with plasmid pOG44 by lipofection with Tfx-50 (Promega) into Flp-In T-REx 293 cells (Invitrogen; referred to as 293-FIT-NT in the remainder). After antibiotic selection with hygromycin B and blasticidin S, the surviving cells, used as a pool and designated as 293-FIT-ETTh, were assayed for ETT transcripts by Northern analysis.
The cell lines 293-FIT-ETTh and 293-FIT-NT (original cell line, not transfected), grown as monolayers in 6 cm diameter polystyrol dishes and induced with 1 μg/ml doxycycline for 20 h, were incubated for 1 min at 37° C. with 2 ml of a mixture of human plasma (50%) and KRH buffer (50%). KRH buffer (Krebs-Ringer-Henseleit) contains 5.6 mM (+)-Glucose, 125 mM NaCl, 4.8 mM KCl, 1.2 mM KH2PO4, 1.2 mM CaCl2, 1.2 mM MgSO4, and 25 mM HEPES-NaOH pH 7.4. The dishes were rinsed 4 times with 3 ml ice-cold KRH and subsequently incubated with 1 ml of 4 mmol/l HClO4 to release the cell contents. 15 μl of lysate were analyzed by LC-MS (ESI, positive mode) using a Thermo Finnigan TSQ Quantum triple quad mass spectrometer equipped with a Waters Atlantis HILIC silica column (length 100 mm, diameter 3 mm, particle size 5 μm). The solvent for isocratic chromatography (flow rate 250 μl/min) was made of methanol (70%) and 0.1% formic acid (30%). Data sets were compared by LC-MS Difference Shading software (see separate patent application).
A series of compounds structurally related to either stachydrine or carnitine, the key substrate of the related OCTN2 transporter was tested, for transport by ETTh. […] LC-MS/MS determines total cellular content of a particular analyte.

[2] = Man, blood; cited from earlier work
[3] = Pig, blood; cited from earlier work
[4] = Rat, blood; cited from earlier work
[5] = Guinea Pig, blood; cited from earlier work
[6] = Accumulation of ergothioneine in the lens of the eye
[7] = cited from earlier work
[8] = Dog, blood; cited from earlier work
[9] = Ox, blood; cited from earlier work
[10] = tested on: 293-FIT-NT cells; assay: ET uptake into control 293-FIT-NT cells (no ETT expression); type: cell-based, human
Description: as §1

[11] = Rabbit, blood; cited from earlier work
[12] = Fowl, blood; cited from earlier work
[13] = molecular target: T2, carnitine transporter OCTN2 from rat (Rattus norvegicus, UniProt O70594); assay: ET transport by carnitine transporter OCTN2; type: cell-based
T2 sequence (O70594 1-557): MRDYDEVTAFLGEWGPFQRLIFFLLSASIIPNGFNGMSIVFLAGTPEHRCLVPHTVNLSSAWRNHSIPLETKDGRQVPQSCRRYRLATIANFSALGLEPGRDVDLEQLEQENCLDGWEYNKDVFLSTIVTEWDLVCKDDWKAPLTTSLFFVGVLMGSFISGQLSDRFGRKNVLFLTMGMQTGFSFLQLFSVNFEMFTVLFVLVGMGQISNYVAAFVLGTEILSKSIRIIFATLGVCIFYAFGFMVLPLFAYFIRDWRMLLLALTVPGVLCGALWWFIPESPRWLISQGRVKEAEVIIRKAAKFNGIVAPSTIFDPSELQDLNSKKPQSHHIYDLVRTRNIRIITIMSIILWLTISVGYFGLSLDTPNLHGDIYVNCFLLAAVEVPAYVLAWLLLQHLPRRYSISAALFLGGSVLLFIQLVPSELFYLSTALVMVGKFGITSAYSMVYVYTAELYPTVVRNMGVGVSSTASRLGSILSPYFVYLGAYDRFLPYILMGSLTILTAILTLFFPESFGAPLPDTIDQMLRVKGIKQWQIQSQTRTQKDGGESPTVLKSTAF
Description: If the substrate concentration is much smaller than the affinity of the transporter (=Km), then the clearance is directly proportional to the transport efficiency, defined, by analogy to catalytic efficiency for enzymes, as kcat/Km, where kcat is the turnover number of an individual transporter molecule (note that Vmax=kcat*Etotal, where Etotal is the number of transporter molecules).

[14] = Cat, blood; cited from earlier work
[15] = Sheep, blood; cited from earlier work
[16] = in vivo
[17] = 293-FIT-ETTh cells, 1 min at 37° C., KRH buffer, LC-MS/MS
[18] = LC-MS/MS assay, substrate 10 μmol/l, 1 min at 37° C.

SMILES: CC[N+](CC)(CC)CC [TEA, tetraethyl ammonium]
transport by ETTh (in words) ([1]; radiotracer assay, substrate 0.1 μmol/l): negligible

SMILES: C[N+](C)(C)[C@@H](Cc1c[nH]c(=S)[nH]1)C(=O)[O-] [ergothioneine, 2-mercaptohistidine trimethylbetaine]
Ergothioneine concentration [2]: 1-4 mg/100 ml blood | Ergothioneine concentration [3]: 3-27 mg/100 ml blood | Ergothioneine concentration [4]: 1-6 mg/100 ml blood | Ergothioneine concentration [5]: 1-4 mg/100 ml blood | accumulation in the lens of the eye (in words) [6]: significant accumulation | concentration in human and mammalian tissue (estimated) [7]: 1000 to 2000 µM | true clearance (Vmax divided by Km) ([1]; 293-FIT-ETTh cells): 190 μl/min/mg protein | Vmax [1, 17]: 4.2 nmol/min/mg protein | Km [1, 17]: 22 µM | transport by ETTh (in words) [1, 18]: extremely high transport activity | ETTh transports ET better than stachydrine ([1]; transport efficiency, ET versus stachydrine): 10 fold | Ergothioneine concentration [8]: 3-6 mg/100 ml blood | Ergothioneine concentration [9]: 0.5-2 mg/100 ml blood | slope d of uptake into control cells ([10]; 293-FIT-NT control cells, 1 min at 37° C., KRH buffer): 0.32 μl/min/mg protein | uptake into cells without expression of ETT (in words) ([10]; without expression of ETT): virtually no uptake | Ergothioneine concentration [11]: 1-10 mg/100 ml blood | Ergothioneine concentration [12]: 2-10 mg/100 ml blood | acceptance as substrate by OCTN2 [13]: did not accept ET as a substrate at all | Ergothioneine concentration [14]: 0.5-2 mg/100 ml blood | Ergothioneine concentration [15]: 2-6 mg/100 ml blood

transport by ETTh (in words) [1, 18]: good substrates
SMILES: C[N+]1(C)C[C@@H](O)C[C@@H]1C(=O)[O-] [hydroxyproline betaine]

Km [1, 17]: 300 µM | transport by ETTh (in words) [1, 18]: accumulated | transport by ETTh (in words) ([1]; LC-MS/MS assay, substrate 10 μmol/l, 1 min at 37° C., listed as proline betaine): good substrates | plasma levels [16]: about 10 μmol/l
SMILES: C[N+]1(C)CCC[C@H]1C(=O)[O-] [stachydrine]
